{"source": "paper PMC1920558", "about": "(PLoS ONE, 2007)", "key": {"NEP": {"tested_on": "NEP", "test": "NEP digestion, products by RP-HPLC and MS", "assay_type": "in vitro ADME", "settings": "37°C; for effect of NEP exposure on peptide level: 60 µM peptide, 1.2 µM NEP, 4 hours, 100 mM Tris-HCl pH 7.4, 1% Triton X-100, RP-HPLC", "protocol": "Figure 4 NEP preferentially degrades monomeric forms of AChE586-599. (A) 60 µM of either substance P or T40 were incubated with or without 1.2 µM NEP (37°C, 4 hours) and the digestion mixture subjected to RP-HPLC. (B) Positions of NEP initial cleavages (arrows) within AChE586-599. (C) Cleavage map after complete NEP digestion of AChE586-599. 40 µM AChE586-599 was incubated with 772 nM NEP (30 min (B) or 4 hours (C), 37°C) and RP-HPLC peaks analyzed by MS. (D) NEP degrades AChE586-599 oligomers. […] Digestion products were analyzed as described in Figure 3C. Arrows indicate two digested AChE586-599 oligomers. (E) T40/IDE products are substrates for NEP. 60 µM T40 was incubated with 50 nM IDE (37°C, 30 min) and products separated by RP-HPLC. Peaks e–f (see Figure. 2C) were lyophilized, incubated with 772 nM NEP (37°C, 2 hours) and subjected to RP-HPLC.\n60 µM substance P or T40 were incubated with or without 1.2 µM NEP (4 hours), stopped (0.5% trifluoroacetic acid) and subjected to RP-HPLC."}, "IDE [1]": {"molecular_target": "T1, IDE (Rattus norvegicus, UniProt P35559)", "T1 sequence (P35559 1-1019)": "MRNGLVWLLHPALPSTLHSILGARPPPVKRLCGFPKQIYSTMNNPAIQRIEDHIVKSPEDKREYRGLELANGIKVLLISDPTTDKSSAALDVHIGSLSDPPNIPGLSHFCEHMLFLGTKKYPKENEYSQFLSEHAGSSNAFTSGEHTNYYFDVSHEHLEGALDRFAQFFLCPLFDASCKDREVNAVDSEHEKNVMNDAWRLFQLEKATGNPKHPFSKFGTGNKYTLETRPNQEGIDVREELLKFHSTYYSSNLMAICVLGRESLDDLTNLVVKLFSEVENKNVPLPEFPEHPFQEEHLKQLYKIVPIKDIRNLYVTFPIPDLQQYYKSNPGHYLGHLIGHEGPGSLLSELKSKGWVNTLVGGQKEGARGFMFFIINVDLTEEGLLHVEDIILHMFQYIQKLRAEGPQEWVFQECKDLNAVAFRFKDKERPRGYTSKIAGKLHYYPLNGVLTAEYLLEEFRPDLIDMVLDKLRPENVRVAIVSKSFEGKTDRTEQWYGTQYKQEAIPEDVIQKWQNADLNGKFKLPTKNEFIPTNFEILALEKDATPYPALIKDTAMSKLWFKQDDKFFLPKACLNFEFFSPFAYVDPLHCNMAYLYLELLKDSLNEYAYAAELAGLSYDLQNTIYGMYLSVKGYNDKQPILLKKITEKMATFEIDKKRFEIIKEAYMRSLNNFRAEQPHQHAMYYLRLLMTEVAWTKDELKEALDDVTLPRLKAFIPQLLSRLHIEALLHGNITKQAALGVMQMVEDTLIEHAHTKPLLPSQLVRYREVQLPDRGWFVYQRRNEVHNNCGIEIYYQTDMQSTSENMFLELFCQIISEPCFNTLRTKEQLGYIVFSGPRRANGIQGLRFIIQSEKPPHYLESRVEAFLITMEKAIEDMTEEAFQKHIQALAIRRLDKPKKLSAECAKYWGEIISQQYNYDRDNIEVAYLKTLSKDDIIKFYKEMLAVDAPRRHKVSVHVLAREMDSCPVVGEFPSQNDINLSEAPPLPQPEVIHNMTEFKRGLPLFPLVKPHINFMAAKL", "test": "IDE digestion, products by RP-HPLC and MS", "settings": "37°C", "protocol": "(§1) 16 µM T40 was incubated with or without 22 nM IDE (37°C) and the reaction stopped as indicated. (B) Specificity of IDE activity. […] For (A) and (B), digestion products were resolved (10% Tris-Tricine SDS-PAGE), electro-blotted onto nitrocellulose and probed with KD69 (specific for the T40). Marker proteins are indicated. Arrows indicate the positions of T40 monomers and dimers. (C) 60 µM T40 was incubated with or without 50 nM IDE (37°C) and products separated by RP-HPLC (peaks annotated a–h). (D) Positions of IDE initial cleavages (arrows) within T40 (2 min digestion). (E) Identity of the major peptides (italics) and of CSR species in peaks a–h, analyzed by MS.\n(A) Positions of IDE initial cleavages (arrows) within AChE586-599. […] 63 µM AChE586-599 was incubated with or without 45 nM IDE (A) or 273 nM IDE (B)(37°C, 30 min) and RP-HPLC peaks analyzed by MS. […] AChE586-599 oligomers (16 µM) cross-linked by photo-induced cross-linking were incubated with or without 16.3 nM IDE (37°C). Digestion products were resolved (16.5% Tris-Tricine SDS-PAGE), electro-blotted onto nitrocellulose and probed with Mab 105A (specific for AChE586-599 in β-sheet conformation). Marker proteins are indicated.\nTo identify degradation products, 60 µM T40 was incubated with 50 nM IDE; 63 µM AChE586-599 with 45 nM or 273 nM IDE; and 40 µM AChE586-599 with 772 nM NEP and separated by reverse phase-HPLC (RP-HPLC). Peaks were collected and identities determined on a Q-TOF Micro mass spectrometer (Micromass, UK) with MassLynx 4.0 and MaxEnt 3 software. Lyophilized HPLC separated T40/IDE products were used for surface tension and seeding experiments.\nReaction products were resolved by RP-HPLC with a Sephasil C4 column (5 µm, 4.6×250 mm; Amersham Biosciences, UK) using a 5–95% linear gradient of acetonitrile in 0.1% trifluoroacetic acid over 25 min (flow rate 1 ml/min). The eluent was monitored by UV absorption at 280 nm."}, "IDE [2]": {"molecular_target": "T1, IDE", "test": "IDE digestion of T40, SDS-PAGE and western blot with KD69", "settings": "16 µM T40, 22 nM IDE, 37°C", "protocol": "as §1\n(§2) IDE and NEP (Merck, UK) digestions were at 37°C in 100 mM KHPO4/KH2PO4 buffer pH 7.5 (buffer A) or 100 mM Tris-HCl pH 7.4, 1% Triton X-100 (buffer B) respectively. 16 µM T40 was incubated with 22 nM IDE or 309 nM NEP, and 16 or 14.8 µM AChE586-599 oligomers with 16.3 nM IDE or 285 nM NEP. Reactions were stopped by boiling in a Laemmli's dissociation buffer with 100 mM DTT and subjected to SDS-PAGE (10% Tris-Tricine for T40 and 16.5% Tris-Tricine for AChE586-599 oligomers). […]"}, "IDE (insulysin), 45 nM": {"tested_on": "IDE (insulysin), 45 nM", "test": "IDE in 100 mM KHPO4/KH2PO4 buffer pH 7.5 (buffer A)", "settings": "37°C, up to 30 min"}, "NEP (neprilysin), 772 nM": {"tested_on": "NEP (neprilysin), 772 nM", "test": "NEP in 100 mM Tris-HCl pH 7.4, 1% Triton X-100 (buffer B)", "settings": "37°C, up to 4 hours"}, "IDE (insulysin), 50 nM": {"tested_on": "IDE (insulysin), 50 nM", "test": "IDE in 100 mM KHPO4/KH2PO4 buffer pH 7.5 (buffer A)", "settings": "37°C, up to 2 hours"}, "NEP (neprilysin), 1.2 µM": {"tested_on": "NEP (neprilysin), 1.2 µM", "test": "NEP in 100 mM Tris-HCl pH 7.4, 1% Triton X-100 (buffer B)", "settings": "37°C, up to 4 hours"}, "IDE [3]": {"molecular_target": "T1, IDE", "test": "Specificity/inhibition of T40-degrading activity of IDE", "assay_type": "biochemical", "set-up": "purchased Merck, UK", "settings": "16 µM T40, 22 nM IDE, 37°C, 90 min", "protocol": "as §1, §2"}}, "note": "Entries after “also recorded” stand apart in the source; their conditions may differ. Where a SMILES comes first, the peptide text is derived from it."}
{"compound": "CSCC[C@H](NC(=O)[C@H](Cc1ccc(O)cc1)NC(=O)[C@H](CO)NC(=O)[C@H](CO)NC(=O)[C@H](Cc1c[nH]c2ccccc12)NC(=O)[C@H](CCCNC(=N)N)NC(=O)[C@H](Cc1c[nH]cn1)NC(=O)[C@H](Cc1ccccc1)NC(=O)[C@H](CCC(=O)O)NC(=O)[C@H](C)N)C(=O)N[C@H](C(=O)N[C@@H](Cc1c[nH]cn1)C(=O)N[C@@H](Cc1c[nH]c2ccccc12)C(=O)N[C@@H](CCCCN)C(=O)O)C(C)C", "note": "[AChE586-599] (H-AEFHRWSSYMVHWK-OH)", "values": [{"measurement": "time for complete digestion of AChE586-599 by NEP", "setting": "NEP; 40 µM AChE586-599, 772 nM NEP, Tris-HCl pH 7.4, 1% Triton X-100, RP-HPLC/MS", "result": "≤ 4", "unit": "h"}, {"measurement": "degradation of AChE586-599 by IDE", "setting": "IDE [1]; 63 µM AChE586-599, 45 nM IDE, 30 min, buffer pH 7.5, RP-HPLC/MS", "result": "degraded"}, {"measurement": "extent of AChE586-599 digestion by IDE", "setting": "IDE [1]; 63 µM AChE586-599, 273 nM IDE, 30 min, RP-HPLC/MS", "result": "complete IDE digestion"}]}
{"compound": "CSCC[C@H](NC(=O)[C@H](Cc1ccc(O)cc1)NC(=O)[C@H](CO)NC(=O)[C@H](CO)NC(=O)[C@H](Cc1c[nH]c2ccccc12)NC(=O)[C@H](CCCNC(=N)N)NC(=O)[C@H](Cc1c[nH]cn1)NC(=O)[C@H](Cc1ccccc1)NC(=O)[C@H](CCC(=O)O)NC(=O)[C@H](C)NC(=O)[C@H](CCCCN)NC(=O)[C@H](Cc1c[nH]c2ccccc12)NC(=O)[C@H](CCC(N)=O)NC(=O)[C@H](CCCNC(=N)N)NC(=O)[C@H](CCC(=O)O)NC(=O)[C@H](C)NC(=O)[C@H](CCC(=O)O)NC(=O)[C@H](CC(=O)O)NC(=O)[C@H](CC(C)C)NC(=O)[C@@H](NC(=O)[C@@H](N)CC(=O)O)[C@@H](C)O)C(=O)N[C@H](C(=O)N[C@@H](Cc1c[nH]cn1)C(=O)N[C@@H](Cc1c[nH]c2ccccc12)C(=O)N[C@@H](CCCCN)C(=O)N[C@@H](CC(N)=O)C(=O)N[C@@H](CCC(N)=O)C(=O)N[C@@H](Cc1ccccc1)C(=O)N[C@@H](CC(=O)O)C(=O)N[C@@H](Cc1c[nH]cn1)C(=O)N[C@@H](Cc1ccc(O)cc1)C(=O)N[C@@H](CO)C(=O)N[C@@H](CCCCN)C(=O)N[C@@H](CCC(N)=O)C(=O)N[C@@H](CC(=O)O)C(=O)N[C@@H](CCCNC(=N)N)C(=O)N[C@@H](CS)C(=O)N[C@@H](CO)C(=O)N[C@@H](CC(=O)O)C(=O)N[C@@H](CC(C)C)C(=O)O)C(C)C", "note": "[T40] (H-DTLDEAERQWKAEFHRWSSYMVHWKNQFDHYSKQDRCSDL-OH)", "values": [{"measurement": "effect of NEP exposure on peptide level", "setting": "NEP", "result": "remained unchanged"}, {"measurement": "incubation time for complete disappearance of monomeric T40 with IDE", "setting": "IDE [2]; 100 mM KHPO4/KH2PO4 buffer pH 7.5, western blot KD69", "result": "≤ 80", "unit": "min"}, {"measurement": "fate of dimeric T40 with IDE", "setting": "IDE [2]; buffer pH 7.5, up to 80 min, western blot KD69", "result": "remained undigested"}, {"measurement": "extent of T40 digestion by IDE at 30 min", "setting": "IDE [1]; 60 µM T40, 50 nM IDE, buffer pH 7.5, RP-HPLC C4, UV 280 nm", "result": "near complete digestion"}]}
{"compound": "AEFHRWSSYMVHWK", "values": [{"measurement": "cleaved bond", "setting": "IDE (insulysin), 45 nM", "result": "Ser8-Tyr9, first_seen, 30 min; also recorded: His12-Trp13, first_seen, 30 min"}, {"measurement": "cleaved bond", "setting": "NEP (neprilysin), 772 nM", "result": "Ser8-Tyr9, first_seen, 30 min; also recorded: His12-Trp13, first_seen, 30 min; also recorded: H4-R5, first_seen, 30 min"}]}
{"compound": "DTLDEAERQWKAEFHRWSSYMVHWKNQFDHYSKQDRCSDL", "values": [{"measurement": "cleaved bond", "setting": "IDE (insulysin), 50 nM", "result": "Phe14-His15, first_seen, 2 min; also recorded: Ser19-Tyr20, first_seen, 2 min; also recorded: Trp24-Lys25, first_seen, 2 min"}, {"measurement": "not cleaved", "setting": "NEP (neprilysin), 1.2 µM", "result": "levels remained unchanged after exposure to NEP (4 hours)"}]}
{"compound": "insulin", "values": [{"measurement": "concentration giving complete inhibition of IDE degradation of T40", "setting": "IDE [3]; western blot, equimolar to T40", "result": 16, "unit": "µM"}, {"measurement": "inhibition of IDE degradation of T40", "setting": "IDE [3]; insulin or IgG 2–16 µM, 1,10-phenanthroline 1 and 10 mM", "result": "dose dependent inhibition"}]}
{"compound": "substance P [reference compound]", "values": [{"measurement": "effect of NEP exposure on peptide level", "setting": "NEP", "result": "degradation"}]}
